Consider 2 compounds from patent EP2137192B1, “Derivatives of galantamine as pro-drugs for the treatment of human brain diseases” (priority 2008, dated 2009).

One series in a line: in vivo. The settings on record: for Co (Brain), highest pro-galantamine concentration achieved in mouse brain: i.v. injection of 3 mg/kg, for Gal: galantamine after the same amount of galantamine; for Kp: in vivo. How it is done: In table 1, the key pharmacokinetic data of benzoyl-galantamine, of several other R1-pro-galantamines and of galantamine (for comparison) are listed. Table 1: Pharmacokinetic data of several R1-pro-galantamines in the mouse
Co is the highest pro-galantamine concentration (ng/ml) achieved in mouse brain after i.v. injection of 3 mg/kg of pro-galantamine. R-Pro ist he brain-to-blood concentration ratio of pro-galantamine, R-Gal that of galantamine under these experimental conditions. For comparison, Co and R-Gal are also provided for i.v. injection of the same amount of galantamine.
• Figure 1: Brain esterase inhibition by galantamine and several pro-galantamines. A 20% mouse brain homogenate was used, supplemented with 200 µM of acetylthiocholine as substrate, and the initial reaction kinetics were measured according to Riddles PW, Blakeley RL, Zerner B., "Reassessment of Ellman's reagent." Methods Enzymol. 1983;91:49-60. […] In derivative Gln 1063 R1 in formula I is -O-Si(CH3)2-C(CH3)2-C(CH3)2H. • Figure 2: Enzymatic cleavage of pro-galantamine to galantamine. Butyrylcholinesterase, 25 units/ml, was used. Reaction temperature was 37°C. Appearance of the fluorescent reaction product galantamine was determined by fluorescence detection. • Figure 3: Interaction of galantamine and pro-galantamine with a4ß2 neuronal nicotinic acetylcholine receptor ectopically expressed in HEK-293 cells. The increase in response to acetylcholine in the presence of galantamine and Gln-1062, respectively, was determined by whole-cell patch clamp recording. […] Scopolamine induces a memory deficit that can be measured by […] alternation in a T-maze trial. The cognition enhancing drugs were i.p. injected at several different doses together with scopolamine 20 min before a T-maze trial. Recovery was measured as a function of dose, and the EC50 was determined for each drug.
Determination of the pharmacokinetic profiles of Gln-1062 and its cleavage product galantamine in blood and brain. Determine the brain-to-blood concentration ratios of Gln-1062 and its cleavage product galantamine, and assess the blood-brain barrier penetration capacities.
Blood samples were collected from the retro-orbital plexus. 0.5 ml of blood was collected into a pre-labeled polypropylene micro centrifuge tube containing sodium citrate as the anticoagulant, and kept on ice.
Immediately after blood withdrawal, brain was perfused with phosphate buffer saline (pH 7.4), removed and frozen on dry ice.
Brain samples were thawed on ice and weighed. An appropriate volume ice cold homogenizing media (methanol: water::20:80,v/v) added. On ice, homogenized the brain sample with the polytron homogenizer and make up the volume with homogenizing media to get 1 gm of brain per 4 mL of homogenate. After homogenizing, immediately freezed the brain homogenate samples at -80°C until analysis.

Series [1] in a line: logP (partition coefficient). To be noted: source of the values not stated. Type of series: physicochemical. The text has this:
"logP" is defined as the decadic logarithm of the partition coefficient P which is the ratio of […], as the neutral molecule.

In series [2] the target is T1, a4ß2 neuronal nicotinic acetylcholine receptor (Homo sapiens, UniProt P17787+P43681).
T1 construct: expressed in transfected cells; host or cells: HEK-293
The series can be described thus: Allosteric potentiation of nAChR in HEK-293 cells, whole-cell patch clamp. The format is cell-based. To be noted: increase in response to acetylcholine, Figure 3. How it is done:
(§1) 1983;91:49-60. […] Butyrylcholinesterase, 25 units/ml, was used. Reaction temperature was 37°C.
Investigation of the allosteric modulation effect of drug candidates on nicotinic acetylcholine receptors (nAChRs) expressed in HEK-293 cells by electrophysiology. Results shown as figure 3
Single HEK-293 cells expressing either human α4β2, human α3β4, or chimeric chicken α7 (with mouse 5HT3) nAChR were plated on fibronectin-coated cover slips for 3 days before measurement. The selected nAChR containing cells were placed in the recording bath, filled with extracellular buffer (145 mM NaCl, 5 mM KCl, 1 mM MgCl2, 2 mM CaCl2, 10 mM D-glucose, 10 mM HEPES, pH 7.3, approximately 300 mOsm). […] A programmable puller (Sutter, USA) was used to prepare a twin pair of ready for use pipettes. […] 1, 5, 10, 50, 100, 500, 1,000, 5,000 and 10,000 nM, and solutions were applied to the cell surface during 500 ms pulses through the U-tube, and then corresponding currents, digitized to 10 kHz, were recorded for 10 s. […] The averaged peak amplitudes of the currents, measured in the presence of selected compound concentrations, were compared with those determined in the absence of compounds (control) and they were calculated as % of control. […]

For series [3] the following is noted: galantamine administered as the unmodified drug; cited from earlier work.
For another series, the target named is T2, brain cholinesterase (Mus musculus, UniProt P21836).
T2 construct: from tissue; host or cells: mouse brain homogenate
T2 sequence (P21836 32-614): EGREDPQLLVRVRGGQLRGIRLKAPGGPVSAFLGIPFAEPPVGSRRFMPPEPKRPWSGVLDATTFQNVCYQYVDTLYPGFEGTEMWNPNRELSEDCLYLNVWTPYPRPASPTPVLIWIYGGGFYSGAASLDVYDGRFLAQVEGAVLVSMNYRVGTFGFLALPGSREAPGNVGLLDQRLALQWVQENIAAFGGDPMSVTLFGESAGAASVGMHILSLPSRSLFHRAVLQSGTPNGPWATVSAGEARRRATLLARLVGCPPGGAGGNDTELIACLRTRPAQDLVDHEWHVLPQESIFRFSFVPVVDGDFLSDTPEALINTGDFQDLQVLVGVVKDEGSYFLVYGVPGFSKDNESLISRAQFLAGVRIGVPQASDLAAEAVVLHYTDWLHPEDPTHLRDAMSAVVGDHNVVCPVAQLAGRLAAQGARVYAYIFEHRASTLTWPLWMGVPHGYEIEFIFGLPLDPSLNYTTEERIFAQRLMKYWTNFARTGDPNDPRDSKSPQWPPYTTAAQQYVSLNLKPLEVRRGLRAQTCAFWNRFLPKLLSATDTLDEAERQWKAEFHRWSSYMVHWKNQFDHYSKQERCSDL
The series can be described thus: Inhibition of brain esterase, modified Ellman test in mouse brain homogenate. The format is biochemical. The settings on record: 20% mouse brain homogenate, 200 µM acetylthiocholine; Figure 1. How it is done:
as §1
The brain is removed from the animal (mouse), shock frozen in liquid nitrogen and stored at minus 80°C until use. Before preparing the extract, the frozen brain is thawed on ice and the weight is determined. Ice cold buffer (130 mM NaCl, 5 mM KCl, 2.5 mM CaCl2, 1 mM MgCl2, 5 mM Glucose, 5 mM HEPES, pH 7.4) is added to the thawed mouse brain (1:4, weight to volume, resulting in a 20 % brain homogenate). The tissue is then homogenized in a potter homogeniser on ice, moving the piston up and down 11 times at 240 rpm. The freshly prepared mouse brain homogenate is divided into aliquots.
A modified Ellmann's esterase test is used. Briefly the method relies on the cleavage of the substrate acetylthiocholine to acetate and thiocholine. […] The inhibition is expressed as per cent of the non inhibited reaction according to following equation: % Inhibition = 100*(1-(Slopeinhibited/Slopenoninhibited)). […]
A general note: DTNB colorimetry detects thiols as they appear.

Series [4] can be described thus: Reversal from scopolamine-induced amnesia in mice (T-maze alternation). Type of series: in vivo. To be noted: i.p., Figure 6. Here is the method:
as §1
Gln 1062, Gln 0979 and galanthamine were dissolved in 15% -hydroxypropyl-β-cyclodextrin in 96 mM NaCl (isotonic) supplied by the sponsor. Gln 1062 and Gln 0979 were used in concentrations of […], 0.03, 0.1 and 0.2 mg/ml, which when given in a volume of 10 ml/kg result in doses of 0.1, 0.3, 1 and 2 mg/kg i.p., respectively. Galanthamine was used in concentrations of 0.03, 0.1, 0.2 and 0.5 mg/ml, which when given in a volume of 10 ml/kg result in doses of 0.3, 1, 2 and 5 mg/kg i.p., respectively. Control animals received 15% -hydroxypropyl-β-cyclodextrin in 96 mM NaCl injection as a vehicle. […]
The potential cognitive enhancing property of Gln 1062, Gln 0979 and galanthamine were evaluated in scopolamine-treated mice in the T-maze alternation model under the same experimental conditions. […]
Memory performance was assessed by the percentage of spontaneous alternation in the T-maze. […]
The percentage of alternation over the 14 free-choice trials was determined for each mouse and was used as an index of working memory performance. […]
Analysis of variance (ANOVA) was performed on the result data. […] The drug induced reversion of scopolamine-induced memory deficit was calculated by setting the respective response of the saline/vehicle group as 100% and the scopolamine/vehicle group as 0% reversion. […]

T1 sequence (P43681 29-627 limits assumed): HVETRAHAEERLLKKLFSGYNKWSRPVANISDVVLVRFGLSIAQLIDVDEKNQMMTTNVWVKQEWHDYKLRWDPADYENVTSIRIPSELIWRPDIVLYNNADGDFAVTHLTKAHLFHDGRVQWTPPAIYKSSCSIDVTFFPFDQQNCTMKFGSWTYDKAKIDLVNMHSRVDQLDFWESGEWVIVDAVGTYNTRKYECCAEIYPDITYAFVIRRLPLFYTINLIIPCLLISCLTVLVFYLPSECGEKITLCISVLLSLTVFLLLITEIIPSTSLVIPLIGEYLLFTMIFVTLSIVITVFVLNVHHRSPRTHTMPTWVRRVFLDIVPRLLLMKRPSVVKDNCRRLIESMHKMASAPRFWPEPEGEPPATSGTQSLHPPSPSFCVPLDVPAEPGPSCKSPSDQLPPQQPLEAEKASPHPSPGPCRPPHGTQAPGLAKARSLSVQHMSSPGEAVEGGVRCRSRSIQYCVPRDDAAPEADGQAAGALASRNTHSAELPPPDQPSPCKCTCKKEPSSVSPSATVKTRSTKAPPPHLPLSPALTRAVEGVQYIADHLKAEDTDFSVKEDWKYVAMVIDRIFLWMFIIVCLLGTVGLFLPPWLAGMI
T1 sequence (P17787 26-502): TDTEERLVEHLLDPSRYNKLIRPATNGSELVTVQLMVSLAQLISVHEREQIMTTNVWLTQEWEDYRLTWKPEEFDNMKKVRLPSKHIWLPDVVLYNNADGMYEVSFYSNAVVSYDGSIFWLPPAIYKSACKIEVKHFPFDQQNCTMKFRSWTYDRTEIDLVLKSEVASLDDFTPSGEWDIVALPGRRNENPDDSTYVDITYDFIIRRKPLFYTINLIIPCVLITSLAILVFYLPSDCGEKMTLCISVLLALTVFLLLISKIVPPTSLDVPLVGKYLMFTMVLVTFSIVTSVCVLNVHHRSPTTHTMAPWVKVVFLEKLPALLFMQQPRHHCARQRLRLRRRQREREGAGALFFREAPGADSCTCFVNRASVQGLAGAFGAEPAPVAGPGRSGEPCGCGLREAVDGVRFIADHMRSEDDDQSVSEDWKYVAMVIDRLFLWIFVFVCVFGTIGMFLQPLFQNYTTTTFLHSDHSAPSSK

By logP is commonly meant a log measure of how a compound divides between an organic and an aqueous phase. Low values mean lower lipophilicity, high ones higher lipophilicity. As to `COc1ccc2c3c1O[C@H]1C[C@@H](O)C=C[C@@]31CCN(C)C2` [Gal, galantamine], the “Co (Brain), highest pro-galantamine concentration achieved in mouse brain” value in the series “in vivo” came to 1741 ng/mL. Further, the Kp in “in vivo” (mouse) was roughly 1.3; in “in vivo” (mouse, iv, 3 mg/kg) it was 1.2. Also, the log partition coefficient (logP) in series [1] stood at 1.7. Moreover, the “maximal enhancement of response” value in series [2] was ~ 40%. Moreover, the brain-to-plasma ratio in series [3] was ~ 1.3.

For `COc1ccc2c3c1O[C@H]1C[C@@H](OC(=O)c4ccccc4)C=C[C@@]31CCN(C)C2` [Gln 1062, (4aS,6R,8aS)-4a,5,9,10,11,12-Hexahydro-3-methoxy-11-methyl-6H-benzofuro[3a,3,2-ef][2]benzazepin-6-ol, benzoate (ester)], the “brain-to-blood concentration ratio (RBB-proGal)” value in the series “in vivo” (mice) is greater than 19. Also, the “concentration in blood at start of curve” value in the series “in vivo” (mouse blood, 3mg/kg, Figure 4b) is “about 0.3 µg/g”. In addition, the “Co (Brain), highest pro-galantamine concentration achieved in mouse brain” value in “in vivo” was found to be 4812 ng/mL. In addition, the “R-Pro, brain-to-blood concentration ratio of pro-galantamine” value in “in vivo” (mouse, i.v. 3 mg/kg of pro-galantamine) is reported as 19.3. The “R-Gal, brain-to-blood concentration ratio of galantamine” value in the series “in vivo” (mouse, i.v. 3 mg/kg of pro-galantamine, for Gal: same amount of galantamine) is on record as 2.2. The compound further gave a logP in series [1] of 3. The “inhibition of brain esterase” value against brain cholinesterase was “little, if any cholinesterase inhibitory activity”. Besides, the “maximal enhancement of response” value in series [2] is listed as ~ 17%. Besides, the “efficacy in reversing scopolamine-induced amnesia relative to galantamine” value in series [4] was “approximately 4 times”.
